# PMC11885506, “Evaluation of a non-animal toolbox informed by adverse outcome pathways for human inhalation safety” (Frontiers in Toxicology, 2025)
# Entries after “also recorded” stand apart in the source; their conditions may differ. Structures can show the parent of a compound that is named as a salt.
# Tests used:
# EpiAlveolar™ tissues [1] = assay: Cytokine and chemokine measurements (Luminex), EpiAlveolar model, Laboratory 1; type: cell-based, human; details: for MinPoD: EpiAlveolar™ model Laboratory-1
# Description: (§1) EpiAlveolar™ system was obtained from MatTek Corporation (Ashland, MA, United States, cat. no. ALV-100-FT-MAC, ALV-100-FT-MAC-PE12). According to the supplier, the tissue systems were derived from primary human alveolar epithelial cells and primary pulmonary fibroblasts, both from a same healthy donor, and pulmonary endothelial cells from another healthy donor, and THP-1 cell line derived macrophages. These tissues were differentiated by the manufacturer prior to shipping to the testing facilities. […] TEER was measured and only systems with confirmed quality of the tight junction barrier (>300 Ω.cm^2) and with approved morphological inspection were used in the experiments.
# (§2) Vehicle control groups were also tested in parallel. Except for Doxorubicin (which underwent a 6-day chemical exposure + 6-day without exposure), exposures were conducted daily, on 12 consecutive days with different concentrations, through aerosol, apical or basolateral liquid exposure methods (Table 2). […] Each of the insert holders of the instrument base module was filled with Hanks’ Balanced Salt solution (HBSS) or PBS prior to placing the tissue inserts. Then, each test item solution/suspension was placed into the nebulizer reservoir for aerosol material exposure. The nebulizer was activated until the material solution/suspension was consumed and discharged into the main exposure chamber and allowed to fully gravity deposit out of the Cloud 12 (determined using a QCM). After exposure, the tissues were placed back into their multi-well culture plates containing the same medium, a further aliquot of media was added apically (20 µL for Akemi, 75 µL for all others except LPS) and returned to incubator until next exposure. Media used during the 6- or 12-day experimental period was prepared without Supplement X by MatTek. In medium exposure, the apical or basolateral liquid of each tissue was removed and replaced with each test item medium solution/suspension and returned to the incubator until the next exposure. After the beginning of the exposure cycles, tissues were only re-fed with new culture medium every 3-4 days.
# In Laboratory 1, basal media samples collected from the tissues were collected and stored at ≤ −60°C until analysis. For cytokine/chemokine measurements, 17-Plex, duplex and single-plex analyte detection panels were run on the samples using Human Luminex™ Multiplex Immunoassay kits (R&D Systems). The analytes quantified were TNF-α, IL-6, MMP-9, MMP-3, MMP-1, MMP-2, CXCL10, CCL2, IFN-γ, IL-1ra, CCL7, IL-1a, CCL26, CXCL9, VCAM-1, ICAM-1, and CXCL11 in a 17-plex assay; whereas IL-8 and Serpin E1 in a duplex assay and TGF-β1 in a single-plex assay.
# EpiAlveolar™ tissues [2] = assay: Cytokine and chemokine measurements (Luminex), EpiAlveolar model, Laboratory 2; type: cell-based, human; details: for MinPoD: EpiAlveolar™ model Laboratory-2
# Description: as §1, §2
# In Laboratory 2, apical culture media samples of the tissues were collected, stored at −80°C until shipment, in dry ice with temperature monitor control, to Unilever SERS, where the analyses were performed. Upon receipt, samples were again stored in the −80°C until the analysis using Human Luminex® Discovery Assay kits (R&D Systems). The same readouts investigated for MucilAir™-HF tissue samples were quantified in these samples.
# EpiAlveolar™ tissues [3] = assay: High-throughput transcriptomics (RNA-seq, PLIER latent variables), EpiAlveolar model, Laboratory 2; type: cell-based, human; details: for MinPoD: Transcriptomics, biomarker 111
# EpiAlveolar™ model = assay: Bioactivity exposure ratio (BER): lowest in vitro PoD of EpiAlveolar readouts / lower respiratory tract exposure estimate or Cmax; design: species or system human; details: Plasma
# Procedure: (§4) Concentration and time-dependent changes in the bioactivity readout data were analyzed using a nonlinear state space model, based on the work of [Svensson and Schön (2017)]. […] All bioactivity readouts were included in the analysis (where available), i.e., measurements for tissue integrity loss (TEER) and functionality (MCC, CBF, and mucin secretion), cytokine/chemokine secretion, and the transcriptional LV values obtained using PLIER. The datasets were grouped so that a single state space model was used to capture all the responses (across time, concentration, and test material) for a single readout obtained within a particular study (laboratory/tissue model). Data were transformed to the log base 10 scale and normalized using z-scores, so that for a given readout Ytij from a laboratory/tissue model, the corresponding normalized value was given by y^tij=⁡log⁡10(Ytij)−μ)/σ . Here, the indexes i,j,t correspond to the different test materials, concentrations and timepoints, μ and σ are the sample mean and standard deviation of the control readout values obtained for the first timepoint. All measurement were then scaled so that the maximum median value across different replicates was one for all timepoints, readouts and test materials within a given laboratory/tissue model.
# The model consists of state variables xti,j , response variables ytij and the concentrations of material c^i,j . The response variables yti,j represent the normalized (see below) readout values at timepoint t for material exposure i,j . The mean of the response variable is given by xti,j , so that yti,j∼xti,j+et , where et represents random fluctuations in the readout values, due to observational noise, which are taken to be normally distributed. Dynamical changes in state values are given by xti,j=fxt−1i,j,cti,j+vt . Here, fxt−1i,j,c^i,j is a non-linear function that represents interactions between different state variables and the perturbation caused by the test material at a given exposure at concentration c^i,j, and vt represents random fluctuations in state dynamics (which are also normally distributed). Following [Svensson and Schön (2017)], the nonlinear terms are based on an approximation to Gaussian processes, which are obtained using a basis function expansion-based approach. Inference of the model parameters was performed in the framework of Bayesian inference, wherein random draws of the posterior distribution were obtained using Sequential Monte Carlo (SMC), see [Svensson and Schön (2017)] and [Chopin and Papaspiliopoulos (2020)]. For each state space model representing a particular laboratory/readout dataset, SMC simulation was run for three chains at 5,000 iterations each, and first 1,000 iterations were discarded from the final posterior samples. The Rhat convergence diagnostic (Rhat < 1.1) was used to ensure the simulations had converged.
# The state space model and posterior model parameter samples were then used to construct posterior predictive distributions of the response of each readout to a given test material for a given concentration and timepoint (see Figure 4). The posterior predictive distributions were used to estimate various statistics on the readout responses (median, 95% credible range etc.), PoDs, Concentration Dependency Scores (CDS) and two Effect Scores (increase and decrease). PoDs were defined as the concentration at which the mean response to a test material exceeded the 95% credible range of control for each timepoint (otherwise the mean response remains within the range of control). PoDs distribution for each timepoint, test material and readout, from which different statistical measures (e.g., the median, 95% credible range etc.) were calculated. The CDS was designed to provide confidence metric in whether an effect in the data was truly concentration dependent.
# [4] = human, therapeutic dose, infusion of 60 mg/m^2 for 40 min; ref Barpe et al. (2010); cited from earlier work
# [5] = cited from earlier work
# EpiAlveolar™ tissues [6] = assay: Histology and immunohistochemistry, EpiAlveolar model, Laboratory 2; details: Laboratory 2, 12-day period
# Procedure: To evaluate the quality of EpiAlveolar™ tissues over the 12-day experimental period, histological and immunohistochemistry assessments for detection of pan-cytokeratin, vimentin, aquaporin 5, pro-surfactant C, CD68, caspase-3, and/or αSMA were performed by Laboratories 1 and 2.
# Tissues were kept in 10% phosphate buffered formalin at 4°C for up to 48 h. Samples were then fixed in 70% ethanol and two strips of membrane were trimmed from each sample, processed, and paraffin-embedded to be cut at 5 µm thick sections and mounted to glass slides. The slides were then dewaxed in xylene, hydrated using graded industrial methylated spirit (70-100%) and stained with H&E for light microscope analysis.
# For immunohistochemistry analysis, tissue sections-containing microscope slides were obtained and processed using a Discovery Ultra Staining System (Roche), according to manufacturer’s instructions, except for anti-CD68 staining that was manually performed. The slides were incubated at 60°C for 8 min and then deparaffinized at 69°C for 24 min. After that, slides were incubated with inhibitor CM or peroxidase blocking solution (for anti-CD68 staining) for 8 min at room temperature. The slides were then incubated at room temperature with the following primary monoclonal antibodies, following manufacturer’s instructions: anti-α smooth muscle actin (αSMA) at 1:500 (Leica Microsystems Ltd), anti-CD68 at 1:3000 for macrophages (11192-T24, Sino Biological), anti-pro-surfactant C protein at 1:1000 (AB3786, Sigma-Aldrich), anti-caspase-3 at 1:10000 (AB4051, Abcam), anti-aquaporin 5 (31661, Invitrogen), anti-pan-cytokeratin for epithelial cells (760-2595, Roche), and anti-vimentin for mesenchymal cells (790-2917, Roche). […]
# A board-certified pathologist evaluated the changes (epithelial thinning, separation/detachment areas, necrosis, collagen, and presence of apoptotic cells, myofibroblasts, and type II pneumocytes) using a semi-quantitative scoring system (Table 2).
# MucilAir™-HF tissues [7] = assay: Mucin-5AC (Muc5AC) immunohistochemistry, goblet cells, MucilAir-HF model; type: cell-based, human; details: 30 min/day exposure, average ± standard deviation
# Procedure: (§3) Tissues were handled as recommended by manufacturer’s instruction.
# The presence of goblet cells was assessed through immunohistochemistry analysis for mucin-5AC protein (Muc5AC) detection. IL-13 and cytomix were used as positive controls (see item 2.5.2 for additional details). On last day of experiment (day 12), cultures (n = 3 tissues/group) were rinsed in PBS and fixed by immersion in 4% formaldehyde for 20 min. Fixed tissues were embedded into paraffin, sectioned, and processed for staining on paraffin sections. The immunostaining of the sections was performed with the Benchmark automated platform (Ventana-Roche, Hoffmann-La Roche Ltd, Basel, Switzerland) and the Autostainer Link 48 (Agilent, Santa Clara, CA. United States) with the detection kit Ultraview DAB (DAB chromogeny, Hoffmann-La Roche Ltd). Sections were pre-treated using heat mediated antigen retrieval with sodium citrate buffer, pH 6, for 20 min. The section was then incubated with recombinant anti-mucin 5AC antibody (ab3649, Abcam) for 1 h at room temperature, followed by biotinylated secondary antibody (Dako) and HRP detection (HRP conjugated ABC system, Vector Laboratories), according to manufacturer’s instruction. The section was then counterstained with hematoxylin (Sigma-Aldrich) and mounted with DPX, a synthetic non-aqueous mounting medium for microscopy. Digital images of the slides were then acquired, and quantitative image analysis performed using Image Pro Plus 6.2 (Media Cybernetics) to quantify the goblet cells on a section. The whole images of stained sections were scanned, and an average 15 images/section were analysed. The results are the ratio between the mucin 5AC stained area and the total surface area of the epithelium on the section.
# MucilAir™-HF tissues [8] = assay: Cytokine and chemokine measurements (Luminex), MucilAir-HF model; type: cell-based, human; details: for Cytokines/chemokines modulated (in words): MucilAir-HF; for MinPoD: MucilAir™-HF model, biomarker IL-1ra
# Procedure: as §3
# Basolateral medium samples of the tissue cultures were collected and stored at −80°C until analysis. The following cytokines/chemokines were quantified using customized Human Luminex® Discovery Assay kits (R&D Systems): chemokine (C-C motif) ligand (CCL) 2, CCL7, CCL26, C-X-C motif chemokine ligand (CXCL) 10, CXCL11, intercellular adhesion molecule-1 (ICAM-1), IL-1α, IL-6, IL-8, matrix metalloproteinase (MMP)-1, MMP-2, MMP-3, MMP-7, MMP-9, osteopontin, interferon (IFN)-γ, IL-1 receptor antagonist (IL-1Ra), urokinase-type plasminogen activator receptor (uPAR), tumour necrosis factor (TNF)-α, urokinase (uPA), serpin E1, tissue inhibitor of metalloproteinase 1 (TIMP-1), and TGF-β1. Samples were measured in technical triplicates according to the manufacturer’s recommendation using a Luminex Bio-Plex® 200 RUO System ([…]).
# [9] = tested on: human airway smooth muscle cells; design: method as in McKay et al., 2000; details: 1-500 U/mL for 24h; ref McKay et al., 2000; cited from earlier work
# [10] = tested on: Beas2B, HFL-1 and H292 cells; design: method as in Gerloff et al., 2017; details: 10 ng/mL for 24h; ref Gerloff et al., 2017; cited from earlier work
# MucilAir™-HF tissues [11] = tested on: MucilAir™-HF tissues
# Procedure: (§5) The MucilAir™-HF system (EP11MD) and ready-to-use chemically-defined, serum-free culture medium (EP04AM) were obtained from Epithelix Sàrl (Geneva, Switzerland). Tissues were handled as recommended by manufacturer’s instruction. […] After differentiation for 42 up to 81 days at the air-liquid interface (ALI) under standard culture conditions (37°C ± 1°C in a humidified atmosphere of 5% ± 1% CO2 in air), tissues were washed 3 days before first exposure and each insert was inspected for beating cilia and mucus production. This washing step (one or twice with PBS) were performed to remove accumulated mucus and cell debris to minimize the risk of interference with the toxicity tests. Over 12-day experimental period, washing steps as well as media changes was performed every 2-3 days.
# (§6) For toxicity testing performed over a 12-day experimental period, tissues were daily exposed to 3 different concentrations of each test material for 30 min or 6 h (for detailed information on each material see Table 1). […]
# (§7) TEER measurements were performed daily after test item exposure to evaluate tissue barrier function. Tissues were washed, 200 µL of buffered saline solution was added to the apical compartment of MucilAir™-HF cultures, and resistance was measured using an EVOMX volt-ohmmeter with chopstick style probes (World Precision Instruments, Stevenage, UK). […]
# MucilAir™-HF tissues [12] = assay: TEER analysis of tissue barrier integrity, MucilAir-HF model; details: Day 4, biomarker TEER
# Procedure: as §5, §6, §7
# MucilAir™-HF tissues [13] = tested on: MucilAir™-HF tissues; remark: listed apart in the source
# Procedure: as §5
# For toxicity testing performed over a 12-day experimental period, tissues were daily exposed to 3 different concentrations of each test material for 30 min or 6 h (for detailed information on each material see Table 1). […] Tissues were exposed by test materials via nebulization, liquid apical application, or liquid basal application. These differences in the exposure type were due to solubility of the test material, route of exposure (inhaled or systemic), or comparison with previous publications. […]
# [14] = tested on: human bronchial epithelial cells (BEAS-2B); design: method as in Sthijns et al., 2014; details: 3-10 µM, 30-min exposure; ref Sthijns et al., 2014; cited from earlier work
# NCI-H292 cells = details: 0.03 µM for 4 h; ref Deshmukh et al., 2005; cited from earlier work
# [15] = tested on: NCI-292 and normal human bronchial epithelial cells; design: method as in Deshmukh et al., 2005; details: ref Deshmukh et al., 2005; cited from earlier work
# [16] = day 12, High 1 concentration (third of the tested concentrations)
# [17] = day 12, Low concentration (first of the tested concentrations)
# [18] = day 12, Medium concentration (second of the tested concentrations)
# Procedure for MucilAir™-HF model: as §4
# The model consists of state variables xti,j , response variables ytij and the concentrations of material c^i,j . The response variables yti,j represent the normalized (see below) readout values at timepoint t for material exposure i,j . The mean of the response variable is given by xti,j , so that yti,j∼xti,j+et , where et represents random fluctuations in the readout values, due to observational noise, which are taken to be normally distributed. Dynamical changes in state values are given by xti,j=fxt−1i,j,cti,j+vt . […] For each state space model representing a particular laboratory/readout dataset, SMC simulation was run for three chains at 5,000 iterations each, and first 1,000 iterations were discarded from the final posterior samples. […]
compound,measurement,setting,value
"COc1cccc2c1C(=O)c1c(O)c3c(c(O)c1C2=O)C[C@@](O)(C(=O)CO)C[C@@H]3O[C@H]1C[C@H](N)[C@H](O)[C@H](C)O1 [Doxorubicin, Doxorubicin hydrochloride]",Cytokines/chemokines modulated (in words),"EpiAlveolar™ tissues [1]; EpiAlveolar, Laboratory 1",tendency towards downregulation of the inflammatory and degradation of extracellular matrix/fibrosis responses; also recorded: dual effect with the anti-inflammatory IL-1ra response
same,MinPoD,"EpiAlveolar™ tissues [1]; Day 4, biomarker MMP-3",0.1566 μg/cm2
same,MinPoD,"EpiAlveolar™ tissues [1]; Day 8, biomarker MMP-3",0.1333 μg/cm2
same,MinPoD,"EpiAlveolar™ tissues [1]; Day 12, biomarker MMP-9",0.1298 μg/cm2
same,Cytokines/chemokines modulated (in words),"EpiAlveolar™ tissues [2]; EpiAlveolar, Laboratory 2",tendency towards downregulation of the inflammatory and degradation of extracellular matrix/fibrosis responses
same,MinPoD,"EpiAlveolar™ tissues [2]; Day 1, biomarker CCL2",0.2843 μg/cm2
same,MinPoD,"EpiAlveolar™ tissues [2]; Day 4, biomarker CCL2",0.1115 μg/cm2
same,MinPoD,"EpiAlveolar™ tissues [2]; Day 8, biomarker CCL7",0.07617 μg/cm2
same,MinPoD,"EpiAlveolar™ tissues [2]; Day 12, biomarker CCL7",0.06864 μg/cm2
same,"Median change, 171 - INTRAFLAGELLAR_TRANSPORT",EpiAlveolar™ tissues [3],0.04
same,MinPoD,EpiAlveolar™ tissues [3]; Day 1,0.002879 μg/cm2
same,MinPoD,EpiAlveolar™ tissues [3]; Day 4,0.00076 μg/cm2
same,MinPoD,EpiAlveolar™ tissues [3]; Day 8,0.0007958 μg/cm2
same,MinPoD,EpiAlveolar™ tissues [3]; Day 12,0.000701 μg/cm2
same,BER_min,"EpiAlveolar™ model; Day 1, EpiAlveolar™ model Laboratory-2",0.2187
same,BER_min,"EpiAlveolar™ model; Day 1, Transcriptomics",0.002215
same,BER_min,"EpiAlveolar™ model; Day 4, EpiAlveolar™ model Laboratory-1",0.1204
same,BER_min,"EpiAlveolar™ model; Day 4, EpiAlveolar™ model Laboratory-2",0.08579
same,BER_min,"EpiAlveolar™ model; Day 4, Transcriptomics",0.0005847
same,BER_min,"EpiAlveolar™ model; Day 8, EpiAlveolar™ model Laboratory-1",0.1025
same,BER_min,"EpiAlveolar™ model; Day 8, EpiAlveolar™ model Laboratory-2",0.05859
same,BER_min,"EpiAlveolar™ model; Day 8, Transcriptomics",0.0006121
same,BER_min,"EpiAlveolar™ model; Day 12, EpiAlveolar™ model Laboratory-1",0.09985
same,BER_min,"EpiAlveolar™ model; Day 12, EpiAlveolar™ model Laboratory-2",0.0528
same,BER_min,"EpiAlveolar™ model; Day 12, Transcriptomics",0.0005393
same,Plasma conc,[4],Plasma conc 1.3 μM
same,Risk,[5]; Scenario Plasma,High
same,Risk classification,"[5]; per benchmark chemical-exposure scenario (product and exposure scenario of the same line), based on historical safety decisions, ref References column of Table 3",High
same,Histological changes compared to vehicle and control groups (in words),EpiAlveolar™ tissues [6],minor increase in epithelial thinning and a minor increase in the numbers of degenerate cells were observed by day 4
Recombinant human TNF-α (carrier-free),% of Muc5AC area,MucilAir™-HF tissues [7]; [16],5.21 ± 3.28%
same,% of Muc5AC area,MucilAir™-HF tissues [7]; [17],8.18 ± 1.54%
same,% of Muc5AC area,MucilAir™-HF tissues [7]; [18],9.15 ± 6.07%
same,Cytokines/chemokines modulated (in words),MucilAir™-HF tissues [8]; 30 min/day exposure,upregulation of CCL2 and osteopontin
same,IL-6 production protein and mRNA transcript levels,[9],significant increase of IL-6 production protein and mRNA transcript levels
same,IL-8 protein levels,[10],increased IL-8 protein levels
Benzalkonium chloride [BAC],% of Muc5AC area,MucilAir™-HF tissues [7]; [16],3.98 ± 1.12%
same,% of Muc5AC area,MucilAir™-HF tissues [7]; [17],5.75 ± 0.93%
same,% of Muc5AC area,MucilAir™-HF tissues [7]; [18],5.37 ± 1.06%
same,Cytokines/chemokines modulated (in words),MucilAir™-HF tissues [8]; 30 min/day exposure,"increase in CCL7, IL-1α and IL-6; also recorded: downregulation of MMP-7 only"
same,Cytokines/chemokines modulated (in words),MucilAir™-HF tissues [8]; exposure time/day not given,IL-1ra showed upregulated levels
same,MinPoD,MucilAir™-HF tissues [8]; Day 8,1.822 μg/cm2
same,MinPoD,MucilAir™-HF tissues [8]; Day 12,1.409 μg/cm2
same,Tissue barrier integrity (TEER) change (in words),MucilAir™-HF tissues [11],trigger changes in tissue barrier integrity
same,MinPoD,MucilAir™-HF tissues [12],2.6 μg/cm2
Carboxymethylcellulose sodium salt [CMC],MCC change (in words),MucilAir™-HF tissues [13],concentration-dependent reduction in the MCC only on day 1
same,BER_min,MucilAir™-HF model,2.393
C=CC=O [Acrolein],% of Muc5AC area,MucilAir™-HF tissues [7]; [16],5.21 ± 2.16%
same,% of Muc5AC area,MucilAir™-HF tissues [7]; [17],3.66 ± 1.21%
same,% of Muc5AC area,MucilAir™-HF tissues [7]; [18],7.40 ± 1.45%
same,Cytotoxicity (LDH leakage),[14],concentration-dependent cytotoxicity through LDH leakage increase
same,MUC5AC mRNA expression,NCI-H292 cells,MUC5AC mRNA expression increase
same,MMP9 mRNA expression,[15],increase of MMP9 mRNA expression
